The source of these data is PubChem BioAssay AID256 (DTP/NCI, 2004).

This experiment deals with CD2F1 mice, L1210 leukemia ip, survival T/C. Kind of experiment: NCI In Vivo Anticancer Drug Screen. Data for tumor model L1210 Leukemia (intraperitoneal) in CD2F1 (CDF1) mice. To be noted: higher = longer survival. In outline:
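Ratio T/C, where T is the treated-group value and C the vehicle-dosed control value, from mice implanted with a transplantable tumor.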

Where [1] appears, read: endpoint: mean survival time, dose: 25.0 mg/kg/injection, schedule: Q01DX009 (ip), vehicle: saline with Tween-80.
Where [2] appears, read: endpoint: mean survival time, dose: 50.0 mg/kg/injection, schedule: Q01DX009 (ip), vehicle: saline with Tween-80.
[3] abbreviates: endpoint: mean survival time, dose: 100.0 mg/kg/injection, schedule: Q01DX009 (ip), vehicle: saline with Tween-80.
Setting [4] is: endpoint: mean survival time, dose: 100.0 mg/kg/injection, schedule: Q01DX001 (ip), vehicle: saline with Tween-80.
Where [5] appears, read: endpoint: mean survival time, dose: 200.0 mg/kg/injection, schedule: Q01DX001 (ip), vehicle: saline with Tween-80.
The mark [6] stands for this setting: endpoint: mean survival time, dose: 400.0 mg/kg/injection, schedule: Q01DX001 (ip), vehicle: saline with Tween-80.
Setting [7] is: endpoint: mean survival time, dose: 100.0 mg/kg/injection, schedule: Q04DX003 (ip), vehicle: saline with Tween-80.
The mark [8] stands for this setting: endpoint: mean survival time, dose: 200.0 mg/kg/injection, schedule: Q04DX003 (ip), vehicle: saline with Tween-80.
Setting [9] is: endpoint: mean survival time, dose: 400.0 mg/kg/injection, schedule: Q04DX003 (ip), vehicle: saline with Tween-80.
[10] abbreviates: endpoint: mean survival time, dose: 50.0 mg/kg/injection, schedule: Q04DX003 (ip), vehicle: saline with Tween-80.
[11] abbreviates: endpoint: mean survival time, dose: 200.0 mg/kg/injection, schedule: Q01DX009 (ip), vehicle: saline with Tween-80.
[12] abbreviates: endpoint: mean survival time, dose: 400.0 mg/kg/injection, schedule: Q01DX009 (ip), vehicle: saline with Tween-80.
The mark [13] stands for this setting: endpoint: mean survival time, dose: 6.25 mg/kg/injection, schedule: Q01DX009 (ip), vehicle: saline with Tween-80.
[14] abbreviates: endpoint: mean survival time, dose: 12.5 mg/kg/injection, schedule: Q01DX009 (ip), vehicle: saline with Tween-80.
[15] abbreviates: endpoint: mean survival time, dose: 25.0 mg/kg/injection, schedule: Q04DX003 (ip), vehicle: saline with Tween-80.

Several values for one entry are separate records, joined by “and”; a condition that tells them apart may be missing. Equal values may be shown once. Inconclusive results and toxic doses are left out.

Consider `ClCc1ccc(Cl)c(Cl)c1Cl`, for which the T/C under setting [1] is 100 % of control, the T/C under setting [2] was 100 % of control and the T/C under setting [3] was 100 % of control.

`O=C(O)c1ccc([N+](=O)[O-])cc1`: the T/C is 93 % of control (endpoint: mean survival time, dose: 100.0 mg/kg/injection, schedule: Q04DX002 (ip), vehicle: Klucel (hydroxypropylcellulose) (HPC)); 101 % of control (endpoint: mean survival time, dose: 200.0 mg/kg/injection, schedule: Q04DX002 (ip), vehicle: Klucel (hydroxypropylcellulose) (HPC)); 86 % of control (endpoint: mean survival time, dose: 400.0 mg/kg/injection, schedule: Q04DX002 (ip), vehicle: Klucel (hydroxypropylcellulose) (HPC)).

As to `O=C(Nc1cc2ccccc2o1)N1CCOCC1`, the T/C (endpoint: mean survival time, dose: 50.0 mg/kg/injection, schedule: Q01DX001 (ip), vehicle: saline with Tween-80) was 94 % of control; the T/C under setting [4] was 97 % of control; the T/C under setting [5] was 100 % of control.

On to `Nc1nc(Cl)c2ncn(C3CC(O)C(CO)C3)c2n1` (stereo not drawn), for which the T/C (endpoint: mean survival time, dose: 100.0 mg/kg/injection, schedule: Q01DX009 (ip), vehicle: saline) was 106 % of control and the T/C (endpoint: mean survival time, dose: 200.0 mg/kg/injection, schedule: Q01DX009 (ip), vehicle: saline) was 106 % of control.

As to `O=C(Nc1ccccc1)c1c(O)[nH]c(=O)[nH]c1=O`, the T/C is 112 % of control [middle of 5 runs] (endpoint: median survival time, dose: 25.0 mg/kg/injection, schedule: Q01DX009 (ip), vehicle: saline with Tween-80); 124 % of control and 112 % of control and 108 % of control (endpoint: median survival time, dose: 50.0 mg/kg/injection, schedule: Q01DX009 (ip), vehicle: saline with Tween-80); 166 % of control and 179 % of control and 211 % of control (endpoint: median survival time, dose: 200.0 mg/kg/injection, schedule: Q01DX009 (ip), vehicle: saline with Tween-80); 233 % of control (endpoint: median survival time, dose: 400.0 mg/kg/injection, schedule: Q01DX009 (ip), vehicle: saline with Tween-80).

Take `O=C(Nc1ccc(NC2=NCCN2)cc1)c1ccc(C(=O)Nc2ccc(NC3=NCCN3)cc2)cc1`: the T/C (endpoint: mean survival time, dose: 3.0 mg/kg/injection, schedule: Q01DX008 (iv), vehicle: water) was 115 % of control.

On to `O=C(O)c1c(Cl)c(-c2c(Cl)c(C(=O)O)c(Cl)c([N+](=O)[O-])c2Cl)c(Cl)c([N+](=O)[O-])c1Cl`, for which the T/C by setting is: under setting [4], 93 % of control; under setting [5], 94 % of control; under setting [6], 89 % of control.

As to `CC/C=C\C/C=C\C/C=C\CCCCCCCC(=O)O`, the T/C is, setting by setting: under setting [7], 92 % of control; under setting [8], 100 % of control; under setting [9], 92 % of control.

Regarding `NC(=S)Nc1ccccc1[N+](=O)[O-]`, the T/C reads like this: under setting [10], 103 % of control and 104 % of control; under setting [4], 101 % of control; (endpoint: mean survival time, dose: 100.0 mg/kg/injection, schedule: Q04DX002 (ip), vehicle: saline with Tween-80) 95 % of control; under setting [7], 97 % of control and 101 % of control; under setting [5], 102 % of control; (endpoint: mean survival time, dose: 200.0 mg/kg/injection, schedule: Q04DX002 (ip), vehicle: saline with Tween-80) 93 % of control. Further, the T/C under setting [8] is 97 % of control and 111 % of control.

With `COc1cc(C2c3cc4c(c(OC5OC6CO[C@@H](c7cccs7)OC6C(O)C5O)c3C[C@@H]3COC(=O)[C@@H]23)OCO4)cc(OC)c1O` (stereo partly drawn), the T/C is, setting by setting: (endpoint: median survival time, dose: 0.8 mg/kg/injection, schedule: Q01DX005 (ip), vehicle: saline with Tween-80) 104 % of control; (endpoint: median survival time, dose: 1.6 mg/kg/injection, schedule: Q01DX005 (ip), vehicle: saline with Tween-80) 100 % of control; (endpoint: median survival time, dose: 3.2 mg/kg/injection, schedule: Q01DX005 (ip), vehicle: saline with Tween-80) 107 % of control; (endpoint: median survival time, dose: 6.4 mg/kg/injection, schedule: Q01DX005 (ip), vehicle: saline with Tween-80) 107 % of control.

With `CCCCCC(C)C(C)=O` (stereo not drawn), the T/C runs as follows: under setting [3], 101 % of control; under setting [11], 106 % of control; under setting [12], 92 % of control.

For `Cc1c2cc(Cl)c3ccccc3c2c[n+]2ccccc12`, the T/C was 102 % of control and 106 % of control (endpoint: mean survival time, dose: 3.12 mg/kg/injection, schedule: Q01DX009 (ip), vehicle: saline with Tween-80); 100 % of control and 109 % of control under setting [13]; 118 % of control and 102 % of control under setting [14]; 114 % of control and 104 % of control under setting [1]; 114 % of control and 110 % of control under setting [2]; 124 % of control and 102 % of control under setting [3].

`CCCC/C=C/C(=O)O`: the T/C is, setting by setting: under setting [2], 98 % of control; under setting [3], 98 % of control; under setting [11], 102 % of control.

`C/C(=N\Nc1ccc([N+](=O)[O-])cc1[N+](=O)[O-])C1CCCCC1`: the T/C was 100 % of control under setting [7], 91 % of control under setting [8] and 91 % of control under setting [9].

On to `O=C1c2ccccc2C(=O)N1CN1CCC(CCCC2CCN(CN3C(=O)c4ccccc4C3=O)CC2)CC1`, for which the T/C is 95 % of control under setting [15], 95 % of control under setting [10] and 95 % of control under setting [7].

Take `[Cl][Pt+2][Cl].[NH-]c1ccc(F)cc1.[NH-]c1ccc(F)cc1`: the T/C (endpoint: mean survival time, dose: 3.13 mg/kg/injection, schedule: Q04DX003 (ip), vehicle: distilled water + Tween-80) was 102 % of control; the T/C (endpoint: mean survival time, dose: 6.25 mg/kg/injection, schedule: Q04DX003 (ip), vehicle: distilled water + Tween-80) is 104 % of control; the T/C (endpoint: mean survival time, dose: 12.5 mg/kg/injection, schedule: Q04DX003 (ip), vehicle: distilled water + Tween-80) is 102 % of control; the T/C (endpoint: mean survival time, dose: 25.0 mg/kg/injection, schedule: Q04DX003 (ip), vehicle: distilled water + Tween-80) was 108 % of control; the T/C (endpoint: mean survival time, dose: 50.0 mg/kg/injection, schedule: Q04DX003 (ip), vehicle: distilled water + Tween-80) is 108 % of control; the T/C (endpoint: mean survival time, dose: 100.0 mg/kg/injection, schedule: Q04DX003 (ip), vehicle: distilled water + Tween-80) is 93 % of control.

In the case of `O=[N+]([O-])c1cc(S(=O)(=O)c2ccc(N3CCCCC3)c([N+](=O)[O-])c2)ccc1N1CCCCC1`, the T/C by setting is: under setting [3], 91 % of control; under setting [11], 97 % of control; under setting [12], 95 % of control.

Turning to `O=C1/C(=C(/c2ccccc2)N2CCOCC2)Cc2ccccc21`, the T/C reads like this: under setting [13], 90 % of control; (endpoint: mean survival time, dose: 6.25 mg/kg/injection, schedule: Q04DX003 (ip), vehicle: saline with Tween-80) 99 % of control; under setting [14], 97 % of control; (endpoint: mean survival time, dose: 12.5 mg/kg/injection, schedule: Q04DX003 (ip), vehicle: saline with Tween-80) 91 % of control; under setting [1], 92 % of control; under setting [15], 98 % of control.

With `CNC(=O)Nc1nnnc2ccccc12`, the T/C under setting [7] was 95 % of control.

In the case of `CCOC(=O)c1csc(-c2csc(CCNC(=O)c3ccccc3)n2)n1`, the T/C runs as follows: under setting [4], 97 % of control; under setting [3], 102 % of control; (endpoint: mean survival time, dose: 100.0 mg/kg/injection, schedule: Q04DX003 (ip), vehicle: saline) 96 % of control; under setting [5], 98 % of control; under setting [11], 100 % of control; (endpoint: mean survival time, dose: 200.0 mg/kg/injection, schedule: Q04DX003 (ip), vehicle: saline) 101 % of control. Moreover, the T/C is, setting by setting: under setting [6], 101 % of control; under setting [12], 96 % of control; (endpoint: mean survival time, dose: 400.0 mg/kg/injection, schedule: Q04DX003 (ip), vehicle: saline) 95 % of control.

Take `COC1OC(COC(=O)c2ccc([N+](=O)[O-])cc2)C(SC#N)C1O` (stereo not drawn): the T/C (endpoint: mean survival time, dose: 150.0 mg/kg/injection, schedule: Q01DX001 (ip), vehicle: saline) is 93 % of control.

For the molecule `Cc1ccc([N+](=O)[O-])cc1NC(=O)Oc1ccc(Cl)cc1Cl`, the T/C is, setting by setting: under setting [2], 102 % of control; under setting [3], 103 % of control.

As to `Cc1cc(C)c2ccc(Cl)nc2n1`, the T/C (endpoint: mean survival time, dose: 75.0 mg/kg/injection, schedule: Q01DX001 (ip), vehicle: other) was 100 % of control.

`CC1CC(C)(C)N=C(C(C)CC2CCCCC2)O1` (stereo not drawn): the T/C by setting is: under setting [4], 95 % of control; under setting [5], 93 % of control.

Take `N#C/C(=C\c1cc(Cl)cc(Cl)c1O)c1ccc([N+](=O)[O-])cc1`: the T/C under setting [2] was 89 % of control, the T/C under setting [3] was 95 % of control and the T/C under setting [11] is 96 % of control.

As for `Oc1ccc2ccccc2c1/C=N/N=C/c1c(O)ccc2ccccc12`, the T/C reads like this: (endpoint: mean survival time, dose: 12.5 mg/kg/injection, schedule: Q01DX009 (ip), vehicle: Klucel (hydroxypropylcellulose) (HPC)) 100 % of control; (endpoint: mean survival time, dose: 25.0 mg/kg/injection, schedule: Q01DX009 (ip), vehicle: Klucel (hydroxypropylcellulose) (HPC)) 96 % of control; (endpoint: mean survival time, dose: 50.0 mg/kg/injection, schedule: Q01DX009 (ip), vehicle: Klucel (hydroxypropylcellulose) (HPC)) 104 % of control.
